According to patent publication US20240368113A1, “AMIDE COMPOUND AND USE THEREOF” (Chengdu Fendi Pharmaceutical Co. Ltd., priority 2021, published 2024):
Like-named read-outs stand apart in the source and are kept apart here.

Test system: MV-4-11 cells
Test: Inhibition of tumor cell proliferation (CellTiter-Glo)
Format: cell-based
Settings: Homo sapiens, read-out: IC50 of inhibitory activity of tumor cell proliferation
Protocol: MV-4-11 cells were diluted with medium (RPM1640+10% FBS+1% PS) and plated at 4000 cells/well in a white-walled clear-bottom 96-well plate. MV-4-11 cells were plated and incubated in a 5% CO2, 37° C. incubator for 2 hours. Cells were treated with the indicated concentration of compound or DMSO (control), and placed in a 5% CO2, 37° C. incubator for 72 h after dosing. After the end of the culture, equilibrate at room temperature for 30 min, add 100 μl of CellTiter-Glo® Reagent to each well, and shake the microplate shaker for 2 min. After 10 min of incubation at room temperature, the luminescence was measured by a microplate reader, and the cell-free wells were used as the background wells. CC-90009 (celegen patent phase I) was used as a control, and its structural formula was as follows: 0

[1] = MV4-11, MV-4-11 cells, 72 h, CellTiter-Glo

Compound	IC50 [1] [nM]	IC50 (MV4-11, 72 h) [nM]
O=C(C#Cc1cnccn1)NCc1ccc2c(c1)CN(C1CCC(=O)NC1=O)C2=O (centres unmarked) [Compound 37]	> 100	
CCCC(=O)OCOC(=O)c1cccc(C#CC(=O)NCc2ccc3c(c2)CN(C2CCC(=O)NC2=O)C3=O)c1 (centres unmarked) [Compound 95]	> 100	
CC(C)(C)C(=O)OCOC(=O)c1cccc(C#CC(=O)NCc2ccc3c(c2)CN(C2CCC(=O)NC2=O)C3=O)c1 (centres unmarked) [Compound 78]	> 100	
O=C(C#Cc1ccc(OC(=O)N2CCC(N3CCCCC3)CC2)cc1)NCc1ccc2c(c1)CN(C1CCC(=O)NC1=O)C2=O (centres unmarked) [Compound 72]		> 100
CC(=O)OCOC(=O)c1ccccc1C#CC(=O)NCc1ccc2c(c1)CN(C1CCC(=O)NC1=O)C2=O (centres unmarked) [Compound 96]	> 100	
O=C(C#Cc1cccnc1)NCc1ccc2c(c1)CN(C1CCC(=O)NC1=O)C2=O (centres unmarked) [Compound 16]	10 to 100	
O=C(C#Cc1ccc2nc[nH]c(=O)c2c1)NCc1ccc2c(c1)CN(C1CCC(=O)NC1=O)C2=O (centres unmarked) [Compound 128]	10 to 100	
CC1(C)COP(=O)(Oc2ccc(C#CC(=O)NCc3ccc4c(c3)CN(C3CCC(=O)NC3=O)C4=O)cc2)OC1 (centres unmarked) [Compound 82]		10 to 100
O=C(C#Cc1ccc2ncncc2c1)NCc1ccc2c(c1)CN(C1CCC(=O)NC1=O)C2=O (centres unmarked) [Compound 127]	> 100	
O=C(C#Cc1ccc(C(=O)O)cc1Cl)NCc1ccc2c(c1)CN(C1CCC(=O)NC1=O)C2=O (centres unmarked) [Compound 103]	10 to 100	
N#Cc1ccc(C#CC(=O)NCc2ccc3c(c2)CN(C2CCC(=O)NC2=O)C3=O)cn1 (centres unmarked) [Compound 42]	> 100	
O=C(C#Cc1cnc(Cl)cc1Cl)NCc1ccc2c(c1)CN(C1CCC(=O)NC1=O)C2=O (centres unmarked) [Compound 39]	1 to 10	
Nc1cc(F)ccc1C#CC(=O)NCc1ccc2c(c1)CN(C1CCC(=O)NC1=O)C2=O (centres unmarked) [Compound 50]	1 to 10	
O=C(C#Cc1ccc(C(F)(F)F)cn1)NCc1ccc2c(c1)CN(C1CCC(=O)NC1=O)C2=O (centres unmarked) [Compound 34]	10 to 100	
O=C(C#CC1CCCCN1C(=O)C(F)(F)F)NCc1ccc2c(c1)CN(C1CCC(=O)NC1=O)C2=O (centres unmarked) [Compound 85]	10 to 100	
O=C(C#Cc1ccc(F)nc1)NCc1ccc2c(c1)CN(C1CCC(=O)NC1=O)C2=O (centres unmarked) [Compound 38]	1 to 10	
O=C(C#Cc1cc2ccccc2o1)NCc1ccc2c(c1)CN(C1CCC(=O)NC1=O)C2=O (centres unmarked) [Compound 98]	1 to 10	
COc1ccc(C#CC(=O)NCc2ccc3c(c2)CN(C2CCC(=O)NC2=O)C3=O)nc1 (centres unmarked) [Compound 30]	1 to 10	
Cn1nccc1C#CC(=O)NCc1ccc2c(c1)CN(C1CCC(=O)NC1=O)C2=O (centres unmarked) [Compound 44]	> 100	
O=C(C#Cc1ccc(C(=O)O)cc1)NCc1ccc2c(c1)CN(C1CCC(=O)NC1=O)C2=O (centres unmarked) [Compound 26]	> 100	
O=C(C#Cc1ccccc1O)NCc1ccc2c(c1)CN(C1CCC(=O)NC1=O)C2=O (centres unmarked) [Compound 58]	1 to 10	

Compound	IC50 [1] [nM]	IC50 (MV4-11, 72 h) [nM]
O=C(O)CCC(=O)Oc1ccccc1C#CC(=O)NCc1ccc2c(c1)CN(C1CCC(=O)NC1=O)C2=O (centres unmarked) [Compound 88]	1 to 10	
CC(=O)Oc1ccc(C#CC(=O)NCc2ccc3c(c2)CN(C2CCC(=O)NC2=O)C3=O)cc1 (centres unmarked) [Compound 32]	1 to 10	
O=C(C#Cc1ccc(Cl)cc1C(=O)O)NCc1ccc2c(c1)CN(C1CCC(=O)NC1=O)C2=O (centres unmarked) [Compound 90]	> 100	
Cn1cnc2cc(C#CC(=O)NCc3ccc4c(c3)CN(C3CCC(=O)NC3=O)C4=O)ccc21 (centres unmarked) [Compound 131]	1 to 10	
CC(=O)c1ccc(C#CC(=O)NCc2ccc3c(c2)CN(C2CCC(=O)NC2=O)C3=O)cc1 (centres unmarked) [Compound 118]	1 to 10	
O=C(C#Cc1ccncc1)NCc1ccc2c(c1)CN(C1CCC(=O)NC1=O)C2=O (centres unmarked) [Compound 23]	> 100	
Cc1c(C#CC(=O)NCc2ccc3c(c2)CN(C2CCC(=O)NC2=O)C3=O)cccc1C(=O)O (centres unmarked) [Compound 92]	> 100	
Cc1ccc(C#CC(=O)NCc2ccc3c(c2)CN(C2CCC(=O)NC2=O)C3=O)nc1 (centres unmarked) [Compound 28]	1 to 10	
COP(=O)(OC)Oc1ccc(C#CC(=O)NCc2ccc3c(c2)CN(C2CCC(=O)NC2=O)C3=O)cc1 (centres unmarked) [Compound 80]		10 to 100
Nc1cccc(C#CC(=O)NCc2ccc3c(c2)CN(C2CCC(=O)NC2=O)C3=O)c1 (centres unmarked) [Compound 84]	1 to 10	
Nc1ccc(C#CC(=O)NCc2ccc3c(c2)CN(C2CCC(=O)NC2=O)C3=O)cc1 (centres unmarked) [Compound 124]	10 to 100	
O=C(C#Cc1ccc(F)c([N+](=O)[O-])c1)NCc1ccc2c(c1)CN(C1CCC(=O)NC1=O)C2=O (centres unmarked) [Compound 53]	10 to 100	
CC(C)(C)OC(=O)CCC(=O)Oc1ccc(C#CC(=O)NCc2ccc3c(c2)CN(C2CCC(=O)NC2=O)C3=O)cc1 (centres unmarked) [Compound 87]	10 to 100	
Cn1cnc2ccc(C#CC(=O)NCc3ccc4c(c3)CN(C3CCC(=O)NC3=O)C4=O)cc21 (centres unmarked) [Compound 132]	10 to 100	
O=C(C#Cc1ccc(O)cc1)NCc1ccc2c(c1)CN(C1CCC(=O)NC1=O)C2=O (centres unmarked) [Compound 57]	10 to 100	
CC(C)(C)C(=O)OCOC(=O)c1ccccc1C#CC(=O)NCc1ccc2c(c1)CN(C1CCC(=O)NC1=O)C2=O (centres unmarked) [Compound 77]	> 100	
O=C(C#Cc1cc(C(=O)O)c(F)cc1F)NCc1ccc2c(c1)CN(C1CCC(=O)NC1=O)C2=O (centres unmarked) [Compound 91]	1 to 10	
O=C(C#CC(O)c1ccccc1)NCc1ccc2c(c1)CN(C1CCC(=O)NC1=O)C2=O (centres unmarked) [Compound 115]	> 100	
Cn1ccc(C#CC(=O)NCc2ccc3c(c2)CN(C2CCC(=O)NC2=O)C3=O)n1 (centres unmarked) [Compound 35]	10 to 100	
O=C(C#Cc1ccc(O)c(Cl)c1)NCc1ccc2c(c1)CN(C1CCC(=O)NC1=O)C2=O (centres unmarked) [Compound 101]	10 to 100	

Second part, led by results:

IC50 [1] [nM]	Compound	IC50 (MV4-11, 72 h) [nM]
< 1	CC(C)(C)OC(=O)c1cccc(C#CC(=O)NCc2ccc3c(c2)CN(C2CCC(=O)NC2=O)C3=O)c1 (centres unmarked) [Compound 70]	
1 to 10	O=C(C#Cc1c(Cl)ccnc1Cl)NCc1ccc2c(c1)CN(C1CCC(=O)NC1=O)C2=O (centres unmarked) [Compound 66]	
< 1	O=C(C#Cc1ccc(CC(F)F)cc1)NCc1ccc2c(c1)CN(C1CCC(=O)NC1=O)C2=O (centres unmarked) [Compound 2]	
< 1	O=C(C#Cc1ccccc1)NCc1ccc2c(c1)CN(C1CCC(=O)NC1=O)C2=O (centres unmarked) [Compound 11]	
1 to 10	O=C(C#Cc1ccc2[nH]ccc2c1)NCc1ccc2c(c1)CN(C1CCC(=O)NC1=O)C2=O (centres unmarked) [Compound 108]	
< 1	O=C(C#Cc1ccc2ocnc2c1)NCc1ccc2c(c1)CN(C1CCC(=O)NC1=O)C2=O (centres unmarked) [Compound 123]	
< 1	CC(C)(C)OC(=O)c1ccccc1C#CC(=O)NCc1ccc2c(c1)CN(C1CCC(=O)NC1=O)C2=O (centres unmarked) [Compound 69]	
1 to 10	Nc1ccc(C#CC(=O)NCc2ccc3c(c2)CN(C2CCC(=O)NC2=O)C3=O)c(F)c1 (centres unmarked) [Compound 48]	
< 1	Cc1ccc(C#CC(=O)NCc2ccc3c(c2)CN(C2CCC(=O)NC2=O)C3=O)cc1[N+](=O)[O-] (centres unmarked) [Compound 51]	
1 to 10	O=C(C#Cc1cc2ccccc2[nH]1)NCc1ccc2c(c1)CN(C1CCC(=O)NC1=O)C2=O (centres unmarked) [Compound 110]	
< 1	O=C(C#Cc1ccc(F)cc1F)NCc1ccc2c(c1)CN(C1CCC(=O)NC1=O)C2=O (centres unmarked) [Compound 10]	
1 to 10	CC(C)C(=O)Oc1ccccc1C#CC(=O)NCc1ccc2c(c1)CN(C1CCC(=O)NC1=O)C2=O (centres unmarked) [Compound 73]	
1 to 10	O=C(C#Cc1cc(O)ccc1Cl)NCc1ccc2c(c1)CN(C1CCC(=O)NC1=O)C2=O (centres unmarked) [Compound 79]	
< 1	O=C(C#Cc1cccs1)NCc1ccc2c(c1)CN(C1CCC(=O)NC1=O)C2=O (centres unmarked) [Compound 6]	
1 to 10	O=C(/C=C/c1ccccc1)NCc1ccc2c(c1)CN(C1CCC(=O)NC1=O)C2=O (centres unmarked) [Compound 15]	
1 to 10	O=C(C#Cc1ccc(Cl)cn1)NCc1ccc2c(c1)CN(C1CCC(=O)NC1=O)C2=O (centres unmarked) [Compound 27]	
1 to 10	CC(C)(C)OC(=O)CCC(=O)Oc1ccccc1C#CC(=O)NCc1ccc2c(c1)CN(C1CCC(=O)NC1=O)C2=O (centres unmarked) [Compound 89]	
< 1	Cc1ccc(C#CC(=O)NCc2ccc3c(c2)CN(C2CCC(=O)NC2=O)C3=O)cc1N (centres unmarked) [Compound 52]	
1 to 10	O=C(C#Cc1ccc(F)cc1[N+](=O)[O-])NCc1ccc2c(c1)CN(C1CCC(=O)NC1=O)C2=O (centres unmarked) [Compound 49]	
1 to 10	O=C(C#Cc1ccc2ncsc2c1)NCc1ccc2c(c1)CN(C1CCC(=O)NC1=O)C2=O (centres unmarked) [Compound 120]	
< 1	O=C(C#Cc1c(F)cccc1F)NCc1ccc2c(c1)CN(C1CCC(=O)NC1=O)C2=O (centres unmarked) [Compound 9]	
< 1	O=C(C#Cc1ccc(Cl)c(C(=O)O)c1)NCc1ccc2c(c1)CN(C1CCC(=O)NC1=O)C2=O (centres unmarked) [Compound 104]	
< 1	Cc1cc(F)c(C#CC(=O)NCc2ccc3c(c2)CN(C2CCC(=O)NC2=O)C3=O)c(F)c1 (centres unmarked) [Compound 13]	
< 1	Cc1ccc(C#CC(=O)NCc2ccc3c(c2)CN(C2CCC(=O)NC2=O)C3=O)s1 (centres unmarked) [Compound 36]	
< 1	O=C(C#Cc1ccc2c(c1)OCO2)NCc1ccc2c(c1)CN(C1CCC(=O)NC1=O)C2=O (centres unmarked) [Compound 24]	
< 1	O=C(C#Cc1ccc2occc2c1)NCc1ccc2c(c1)CN(C1CCC(=O)NC1=O)C2=O (centres unmarked) [Compound 102]	
< 1	O=C(C#Cc1ccccc1Cl)NCc1ccc2c(c1)CN(C1CCC(=O)NC1=O)C2=O (centres unmarked) [Compound 8]	
< 1	COc1cccc(C#CC(=O)NCc2ccc3c(c2)CN(C2CCC(=O)NC2=O)C3=O)c1 (centres unmarked) [Compound 46]	
< 1	O=C(C#Cc1cccc(Br)c1)NCc1ccc2c(c1)CN(C1CCC(=O)NC1=O)C2=O (centres unmarked) [Compound 18]	
< 1	O=C(C#Cc1ccc(Cl)cc1F)NCc1ccc2c(c1)CN(C1CCC(=O)NC1=O)C2=O (centres unmarked) [Compound 4]	
